Experiments:
[1] = siRNA retention by Quant-iT RiboGreen assay; assay type: physicochemical; details: A2 siRNA-aNPs with variations in N/P, tri-caprylin content, cholesterol content and type of phospholipid (FIG. 13); in most cases
Method: The Quant-iT RiboGreen assay (Thermo Fisher) was used to quantify the amount of siRNA loaded inside the formulated particles. The assay was performed using a black 96-well plate. The formulation sample with a theoretical siRNA concentration of 133.3 μg/mL, was diluted 200 times in TE buffer (10 mM Tris-HCl, 1 mM, EDTA, pH 7.5 in DEPC-treated water) and with a TE buffer containing 2% Triton™ X-100, in a black 96-well plate to a total volume of 100 μl. The Triton detergent will disrupt the lipid-based nanoparticles; therefore, all siRNA (retained plus unretained) becomes accessible for the Quant-iT RiboGreen reagent. Controls of siRNA of known concentration (28.6 μg/mL) were diluted 53.3 times in both TE buffer and TE buffer containing 2% Triton in a 96-well plate to a total volume of 100 μl. Next, RiboGreen reagent was diluted 200 times with TE buffer and with TE buffer containing Triton. 100 μl of this dilution was added to each well containing sample or control to bring the total volume in the plate to 200 μl. Subsequently, the samples' fluorescence was measured on a Tecan Spark® microplate reader at an excitation wavelength of 480 nm and emission wavelength of 520 nm.
The recovery of siRNA was determined as:
The siRNA retention=recovery×entrapment.

[2] = Cryo-TEM of nanoparticles; assay type: physicochemical; details: siRNA-aNPs containing the polyvalent material
Method: Size and shape of the nanoparticles was also assessed by cryo-transmission electron microscopy (cryo-TEM). The surface of 200-mesh lacey carbon supported copper grids (Electron Microscopy Sciences) was plasma charged for 40 seconds using a carbon coater (Cressington 208). Subsequently, 3 μl of nanoparticle sample (˜1 mg protein/ml) was pipetted on a grid and vitrified into a thin film by plunge vitrification in liquid ethane. This step was performed by using an automated robot (FEI Vitrobot Mark IV). Cryo-TEM imaging was acquired on the cryo-transmission electron microscope TITAN (Thermo Fisher), equipped with a field emission gun (FEG), a post-column Gatan imaging filter (model 2002) and a post-GIF 2 k×2 k Gatan CCD camera (model 794). The imaging was performed at 300 kV acceleration voltage in bright-field TEM mode with zero-loss energy filtering at 24,000× magnification (dose rate of 11.8 e−/Å2·s), and 1s acquisition time. Pictures and results are reported in Table S6, FIG. 7, FIG. 8, FIG. 9 (A), FIG. 15.

[3] = Dynamic light scattering (DLS) of nanoparticles; assay type: physicochemical
Method: The hydrodynamic diameter of the formulated particles was determined by a number-weighted mean diameter provided by dynamic light scattering (DLS) using a Zetasizer Nano ZS in combination with a Malvern Zetasizer NanoSampler (Malvern Instruments, Worcestshire, UK). The size dispersity was measured as the poly dispersity index (PDI). For the DLS measurements, 100 μl of the formulated nanoparticle was diluted into 700 μl of PBS (137 mM NaCl, 2.7 mM KCl, 10 mM Na2HPO4 and 1.8 mM KH2PO4) and equilibrated at room temperature before the analysis. Each sample was measured 5 times, 10 runs of each 10 seconds, at wavelength 633 nm, without fixing the attenuator and measurement position.

RAW 264.7 cell line = assay: MTS cytotoxicity assay; assay type: cell-based; details: RAW 264.7 cell line exposed to siRNA-aNPs with increasing amounts of the polyvalent molecule (FIG. 10)
Method: MTS assays were carried out on multiple apolipoprotein nanoparticles (aNPs) of the invention. These assays were executed in line with protocols that are known in the art.

[4] = system: RAW264.7 macrophage cells; assay: In vitro Firefly luciferase expression (mRNA transfection); assay type: cell-based; details: 100 ng mRNA per well, 24 hours after transfection (FIG. 14)
Method: For the detection of Firefly luciferase expression in vitro, the ONE-Glo™ Luciferase Assay System (Promega) was used. RAW264.7 cells were seeded at a density of 35 k cells per well in a 96-well plate in 100 μL. After approximately 6 hours the RAW264.7 cells were transfected with 10 μL Firefly luciferase mRNA (RIBOPRO) using aNPs or LNPs at a dose of 100 ng mRNA per well. 24 hours after transfection, cell viability was determined by a CellTiter 96® AQueous One Solution Cell Proliferation assay (MTS) (Promega) assay. 10 μL reagent was added to the cells, and absorbance was measured at 495 nm after an hour of incubation (37° C., 5% CO2). Subsequently, the cells were washed three times with 1×PBS, and then 40 μL ONE-Glo™ Luciferase Assay Reagent was added to each well. After complete lysis of the cells, the cell lysates were transferred to a white flat bottom 96-well plate. Luminescence was measured using a Tecan Spark plate reader. Luciferase expression was expressed as luciferase intensity after normalization to the cell viability and subtracting background signal.

[5] = mRNA-aNPs containing the polyvalent material, in vitro experiment formulation
[6] = mRNA-aNPs containing the polyvalent material, in vivo experiment formulation
[7] = siRNA-aNPs containing A2, N/P = 6, High Cholesterol (3.37 mg)
[8] = siRNA-aNPs containing A2, N/P = 6, Low Cholesterol (0.54 mg)
[9] = siRNA-aNPs containing A2, N/P = 6, Low Triglyceride (5 mg)
[10] = siRNA-aNPs containing A2, N/P = 6, No Triglyceride
[11] = siRNA-aNPs containing A2, N/P = 6, phospholipid DMPC
[12] = siRNA-aNPs containing A2, N/P = 6, phospholipid DPPC
[13] = siRNA-aNPs containing A2, N/P = 6, phospholipid DSPC
[14] = siRNA-aNPs containing A2, N/P = 6, phospholipid POPC
[15] = siRNA-aNPs containing A2, composition as Table S3 except N/P = 3
[16] = siRNA-aNPs containing A2, composition as Table S3 except N/P = 9
[17] = siRNA-aNPs containing the polyvalent material (Table S3), SD over individual repeats

CCCCCCCCOC(=O)CCN(CCCN(CCCCN(CCCN(CCC(=O)OCCCCCCCC)CCC(=O)OCCCCCCCC)CCCN(CCC(=O)OCCCCCCCC)CCC(=O)OCCCCCCCC)CCCN(CCC(=O)OCCCCCCCC)CCC(=O)OCCCCCCCC)CCC(=O)OCCCCCCCC [Example A2, G1-ACR-nC8-8]
siRNA retention (Ribogreen assay) [1]: high siRNA retention
Cryo-TEM Diameter ([2]; SD over n individual particles): 55 ± 11 nm
Cryo-TEM PDI ([2]; n individual particles): 0.04
DLS Hydrodynamic diameter (number mean) [3, 5]: 53 nm
DLS PDI [3, 5]: 0.27
DLS Hydrodynamic diameter (number mean) [3, 6]: 63 nm
DLS PDI [3, 6]: 0.08
DLS Hydrodynamic diameter [3, 7]: 103 nm
DLS PDI [3, 7]: 0.24
DLS Hydrodynamic diameter [3, 8]: 95 nm
DLS PDI [3, 8]: 0.07
DLS Hydrodynamic diameter [3, 9]: 60 nm
DLS PDI [3, 9]: 0.08
DLS Hydrodynamic diameter [3, 10]: 122 nm
DLS PDI [3, 10]: 0.16
DLS Hydrodynamic diameter [3, 11]: 91 nm
DLS PDI [3, 11]: 0.18
DLS Hydrodynamic diameter [3, 12]: 61 nm
DLS PDI [3, 12]: 0.08
DLS Hydrodynamic diameter [3, 13]: 60 nm
DLS PDI [3, 13]: 0.07
DLS Hydrodynamic diameter [3, 14]: 123 nm
DLS PDI [3, 14]: 0.08
DLS Hydrodynamic diameter [3, 15]: 173 nm
DLS PDI [3, 15]: 0.79
DLS Hydrodynamic diameter [3, 16]: 62 nm
DLS PDI [3, 16]: 0.24
nanoparticle diameter, all composition variations of Table S7 ([3]; siRNA-aNPs containing A2, in all cases): with diameters smaller than 200 nm are formed.
DLS Hydrodynamic diameter (number mean) [3, 17]: 57 ± 6 nm
DLS PDI [3, 17]: 0.16 ± 0.03
cytotoxicity (MTS assay) (RAW 264.7 cell line): do not exercise cytotoxicity
Luminescence intensity after Firefly luciferase mRNA transfection, compared with ALC-0315 LNP and aNP controls [4]: outperform the reference LNP and aNP particles

Reference: patent US20250325491A1, “POLYVALENT MOLECULE BASED LIPID NANOPARTICLES FOR NUCLEIC ACID DELIVERY” (Bio-TRIP B.V., priority 2022, published 2025)
